EC50 and bioavailability data for 21 compounds are collected here from patent US10407445B2, “Hepatitis C virus inhibitors” (ENANTA PHARMACEUTICALS, INC., priority 2013, dated 2019).

In one data set the test system is HCV GT 1a replicon. The data set is described as follows: HCV replicon assay, stable GT 1a replicon (Renilla luciferase). In kind it is cell-based. The note with it: Hepatitis C virus, GT1A; HCV GT 1a replicon, 72 h; read-out: EC50 1a. Put shortly:
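Huh-7.5 cells stably carrying a GT1a replicon (H77-based) with Renilla luciferase-Neo reporter, 4000 cells/well, sixteen-point half-log compound series, phenol red-free DMEM without G418. Luciferase read after 72 h relative to DMSO-treated cells gives EC50.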
On the technique in general: In antiviral work, replicon cells carry a viral genome segment that copies itself.

Data set [1] concerns GT1a replicon encoding NS5A mutation Q30R. The data set is described as follows: Transient replication assay, GT1a replicon with NS5A mutation Q30R. The note with it: Hepatitis C virus, read-out: EC50 1a Q30R. In kind it is cell-based.
The test system of data set [2] is GT1a replicon encoding NS5A mutation Y93C. The data set is described as follows: Transient replication assay, GT1a replicon with NS5A mutation Y93C. The note with it: Hepatitis C virus, read-out: EC50 1a Y93C. The format is cell-based.
A short description of data set [3]: IV and PO single dose pharmacokinetic studies in SD rats. The format is in vivo. The note with it: Sprague-Dawley, rat, plasma, male SD rats, oral gavage 20 mg/kg vs IV bolus 2 mg/kg. How it is done:
The pharmacokinetics of selected compounds was characterized in male Sprague-Dawley (SD) rats (250-300 g). […] The intravenous (IV) dosing vehicle was 5% ethanol and 95% of 20% 2-hydroxypropyl β-cyclodextrin in water. The oral dosing vehicle was 33% of Microemulsion Preconcentrate #5 (a lipid based self-emulsifying drug delivery system, SEDDS) and 67% of 50 mM citrate buffer (final pH 3.6).
Serial blood samples (approximately 0.3 mL each) were collected from jugular vein or other suitable vein at specified time points. For the IV dosing group, the blood samples were collected predose and at 0.08, 0.25, 0.50, 1, 3, 6, 8, and 24 hours after the start of dosing. For the oral group, the blood samples were collected predose and at 0.08, 0.25, 0.50, 1, 3, 6, 8, and 24 hours after dosing. The blood samples were collected into VACUTAINER™ tubes containing EDTA-K3 as the anti-coagulant and were centrifuged at approximately 4° C. to obtain plasma. The plasma samples were stored at −20° C. until analysis by LC/MS/MS.
A bioanalytical method utilizing high performance liquid chromatography coupled to tandem mass spectrometry (LC/MS/MS) was developed for analysis of the selected compound in rat plasma. Detection was performed using multiple reaction monitoring (MRM); Ions representing the precursor (M+H)^+ species was selected in quadrupole 1 (Q1) and collided with nitrogen gas in the collision cell (Q2) to generate specific product ion, which was subsequently monitored by quadrupole 3 (Q3). Standard curve and quality control samples were prepared in male rat plasma and processed in the same way as the test samples to generate quantitative data.
Pharmacokinetic parameters were generated using non-compartmental pharmacokinetic analysis (Phoenix WinNonlin, version 6.3). Values below the lower limit of quantification (LLOQ) were assigned a value of zero if predose and treated as missing thereafter. Area under the curve (AUC) was calculated using the linear trapezoidal rule. The oral bioavailability (% F) was determined by comparison of the area under the curve (AUC) of the compound in plasma following oral administration to that generated following intravenous administration.

As usually defined, the EC50 is the concentration that produces a half-maximal response. What is called bioavailability is dose-corrected exposure relative to a reference, in per cent. Low readings indicate little systemic uptake, high ones much systemic uptake. Take `COC(=O)N[C@H](C(=O)N1[C@H](c2nc3ccc4cc(-c5ccc(-c6cnc([C@@H]7C[C@@]8(CCCOC8)CN7C(=O)[C@@H](NC(=O)OC)C7C[C@@H](C)O[C@H](C)C7)[nH]6)cc5)ccc4c3[nH]2)C[C@@H]2CCCC[C@@H]21)C(C)C` (stereo in doubt) [Compound 38]: the EC50 with HCV GT 1a replicon is 0.008 nM; in data set [1], 0.002 nM; in data set [2], 0.004 nM. The same compound had a bioavailability in data set [3] of 12.4%.

Consider `COC(=O)N[C@H](C(=O)N1C[C@]2(CCCOC2)C[C@H]1c1nc2ccc3cc(-c4ccc(-c5cnc([C@@H]6C[C@H]7C[C@H]7N6C(=O)[C@@H](NC(=O)OC)C(C)C)[nH]5)cc4)ccc3c2[nH]1)C(C)C` [Compound 5], for which the EC50 in the data set with HCV GT 1a replicon was found to be 0.008 nM; in data set [1] it was 0.05 nM; in data set [2], 0.06 nM. In data set [3], the bioavailability was 12.2%.

Take `COC(=O)N[C@H](C(=O)N1C[C@]2(CCCOC2)C[C@H]1c1nc2ccc3cc(-c4ccc5c(ccc6nc([C@@H]7C[C@H]8C[C@H]8N7C(=O)[C@@H](NC(=O)OC)C(C)C)[nH]c65)c4)ccc3c2[nH]1)C(C)C` [Compound 6]: the EC50 with HCV GT 1a replicon came out at 0.007 nM; in data set [1] it was 0.04 nM; in data set [2] it was 0.02 nM. In addition, the bioavailability in data set [3] stood at 3.5%.

On to `COC(=O)N[C@H](C(=O)N1CC2(CC2)C[C@H]1c1nc2ccc3cc(-c4ccc5c(ccc6nc([C@@H]7C[C@@]8(CCCOC8)CN7C(=O)[C@@H](NC(=O)OC)C(C)C)[nH]c65)c4)ccc3c2[nH]1)C(C)C` [Compound 7], for which the values for the EC50 (with HCV GT 1a replicon; in data set [1]; in data set [2]) were 0.009 nM, 0.03 nM and 0.02 nM, respectively. The bioavailability in data set [3] was 2.5%.

`COC(=O)N[C@H](C(=O)N1CC2(CC2)C[C@H]1c1ncc(-c2ccc(-c3ccc4c(ccc5nc([C@@H]6C[C@@]7(CCCOC7)CN6C(=O)[C@@H](NC(=O)OC)C(C)C)[nH]c54)c3)cc2)[nH]1)C(C)C` [Compound 8]: the EC50 was found to be 0.01 nM with HCV GT 1a replicon, 0.1 nM in data set [1] and 0.1 nM in data set [2]. This compound also returned a bioavailability in data set [3] of 4.1%.

For the compound `COC(=O)N[C@H](C(=O)N1C[C@]2(CCCOC2)C[C@H]1c1nc2ccc3cc(-c4ccc5c(ccc6nc([C@@H]7C[C@@H]8CCC[C@@H]8N7C(=O)[C@@H](NC(=O)OC)C(C)C)[nH]c65)c4)ccc3c2[nH]1)C(C)C` [Compound 9], the EC50 with HCV GT 1a replicon was 0.007 nM; in data set [1], 0.01 nM; in data set [2], 0.03 nM. The bioavailability in data set [3] is 2.6%.

Turning to `COC(=O)N[C@H](C(=O)N1C[C@]2(CCCOC2)C[C@H]1c1nc2ccc3cc(-c4ccc(-c5cnc([C@@H]6C[C@@H]7CCC[C@@H]7N6C(=O)[C@@H](NC(=O)OC)C(C)C)[nH]5)cc4)ccc3c2[nH]1)C(C)C` [Compound 10], the EC50 amounted to 0.005 nM in the data set on HCV GT 1a replicon, 0.02 nM in data set [1] and 0.2 nM in data set [2]. The same compound returned a bioavailability in data set [3] of 5.7%.

As to `COC(=O)N[C@H](C(=O)N1C[C@]2(CCCOC2)C[C@H]1c1ncc(-c2ccc(-c3ccc4c(ccc5nc([C@@H]6C[C@@]7(CCCOC7)CN6C(=O)[C@@H](NC(=O)OC)C(C)C)[nH]c54)c3)cc2)[nH]1)C(C)C` [Compound 11], the EC50 is 0.023 nM in the data set on HCV GT 1a replicon, 0.05 nM in data set [1] and 0.07 nM in data set [2]. In data set [3], this compound returned a bioavailability of 7.1%.

`COC(=O)N[C@H](C(=O)N1C[C@]2(CCCOC2)C[C@H]1c1ncc(-c2ccc(-c3ccc4c(ccc5nc([C@@H]6C[C@H]7C[C@H]7N6C(=O)[C@@H](NC(=O)OC)C(C)C)[nH]c54)c3)cc2)[nH]1)C(C)C` [Compound 18]: the EC50 in the data set on HCV GT 1a replicon was found to be 0.007 nM; in data set [1], 0.05 nM; in data set [2], 0.2 nM. The compound further yielded a bioavailability in data set [3] of 3.3%.

As to `COC(=O)N[C@H](C(=O)N1C[C@]2(CCCOC2)C[C@H]1c1nc2ccc3cc(-c4ccc5c(ccc6nc([C@@H]7C[C@@H]8C[C@@H]8N7C(=O)[C@@H](NC(=O)OC)C(C)C)[nH]c65)c4)ccc3c2[nH]1)C(C)C` [Compound 21], the EC50 turned out to be 0.02 nM with HCV GT 1a replicon, 0.1 nM in data set [1] and 0.09 nM in data set [2]. The bioavailability in data set [3] turned out to be 3.4%.

As for `COC(=O)N[C@H](C(=O)N1C[C@]2(CCCOC2)C[C@H]1c1nc2ccc3cc(-c4ccc(-c5cnc([C@@H]6C[C@@H]7C[C@@H]7N6C(=O)[C@@H](NC(=O)OC)C(C)C)[nH]5)cc4)ccc3c2[nH]1)C(C)C` [Compound 22], the EC50 came out at 0.009 nM in the data set on HCV GT 1a replicon, 0.1 nM in data set [1] and 0.3 nM in data set [2]. In data set [3], this compound yielded a bioavailability of 9.4%.

Regarding `COC(=O)N[C@H](C(=O)N1C[C@]2(CCCOC2)C[C@H]1c1nc2ccc3cc(-c4ccc5c(ccc6nc([C@@H]7C[C@@H]8CCCC[C@@H]8N7C(=O)[C@@H](NC(=O)OC)C(C)C)[nH]c65)c4)ccc3c2[nH]1)C(C)C` [Compound 23], the EC50 in the data set with HCV GT 1a replicon is 0.012 nM; in data set [1], 0.01 nM; in data set [2] it was 0.02 nM. The same compound had a bioavailability in data set [3] of 5.5%.

Take `COC(=O)N[C@H](C(=O)N1C[C@]2(CCCOC2)C[C@H]1c1nc2ccc3cc(-c4ccc(-c5cnc([C@@H]6C[C@@H]7CCCC[C@@H]7N6C(=O)[C@@H](NC(=O)OC)C(C)C)[nH]5)cc4)ccc3c2[nH]1)C(C)C` [Compound 24]: the figures for the EC50 (with HCV GT 1a replicon; in data set [1]; in data set [2]) were 0.007 nM, 0.02 nM and 0.09 nM, respectively. This compound showed a bioavailability in data set [3] of 7.9%.

Take `COC(=O)N[C@H](C(=O)N1C[C@]2(CCCOC2)C[C@H]1c1ncc(-c2ccc(-c3ccc4c(ccc5nc([C@@H]6CC7(CC7)CN6C(=O)[C@@H](NC(=O)OC)C(C)C)[nH]c54)c3)cc2)[nH]1)C(C)C` [Compound 28]: the EC50 amounted to 0.011 nM in the data set on HCV GT 1a replicon, 0.06 nM in data set [1] and 0.1 nM in data set [2]. For the same compound, the bioavailability in data set [3] stood at 7.2%.

For `COC(=O)N[C@H](C(=O)N1C[C@]2(CCCOC2)C[C@H]1c1ncc(-c2ccc(-c3ccc4c(ccc5nc([C@@H]6C[C@@H]7CCCC[C@@H]7N6C(=O)[C@@H](NC(=O)OC)C(C)C)[nH]c54)c3)cc2)[nH]1)C(C)C` [Compound 29], the values for the EC50 (in the data set on HCV GT 1a replicon; in data set [1]; in data set [2]) were 0.006 nM, 0.01 nM and 0.1 nM, respectively. In data set [3], the bioavailability amounted to 17.1%.

Consider `COC(=O)N[C@H](C(=O)N1C[C@]2(CCCOC2)C[C@H]1c1nc2ccc3cc(-c4ccc5c(ccc6nc([C@@H]7C[C@@]8(CCCOC8)CN7C(=O)[C@@H](NC(=O)OC)C(C)C)[nH]c65)c4)ccc3c2[nH]1)C(C)C` [Compound 31], for which the figures for the EC50 (in the data set with HCV GT 1a replicon; in data set [1]; in data set [2]) were 0.03 nM, 0.02 nM and 0.007 nM, respectively. The compound further displayed a bioavailability in data set [3] of 3.8%.

In the case of `COC(=O)N[C@H](C(=O)N1C[C@]2(CCCOC2)C[C@H]1c1ncc(-c2ccc(-c3ccc(-c4cnc([C@@H]5C[C@@H]6CCCC[C@@H]6N5C(=O)[C@@H](NC(=O)OC)C(C)C)[nH]4)cc3)cc2)[nH]1)C(C)C` [Compound 32], the EC50 worked out at 0.007 nM with HCV GT 1a replicon, 0.04 nM in data set [1] and 0.5 nM in data set [2]. This compound also showed a bioavailability in data set [3] of 24.1%.

For `COC(=O)N[C@H](C(=O)N1C[C@]2(CCCOC2)C[C@H]1c1nc2ccc3cc(-c4ccc(-c5cnc([C@@H]6C[C@@H]7COC[C@@H]7N6C(=O)[C@@H](NC(=O)OC)C(C)C)[nH]5)cc4)ccc3c2[nH]1)C(C)C` [Compound 34], the values for the EC50 (with HCV GT 1a replicon; in data set [1]; in data set [2]) were 0.024 nM, 0.02 nM and 0.09 nM, respectively. The bioavailability in data set [3] stood at 2.1%.

As to `COC(=O)N[C@H](C(=O)N1CCC[C@H]1c1nc2ccc3cc(-c4ccc5c(ccc6nc([C@@H]7CCCN7C(=O)[C@@H](NC(=O)OC)C(C)C)[nH]c65)c4)ccc3c2[nH]1)C(C)C` [Example 101], the EC50 in the data set on HCV GT 1a replicon is 0.011 nM; in data set [1], 0.2 nM; in data set [2] it was 0.5 nM.

`COC(=O)N[C@H](C(=O)N1CCC[C@H]1c1ncc(-c2ccc(-c3ccc4c(ccc5nc([C@@H]6CCCN6C(=O)[C@@H](NC(=O)OC)C(C)C)[nH]c54)c3)cc2)[nH]1)C(C)C` [Example 102]: the EC50 turned out to be 0.015 nM in the data set on HCV GT 1a replicon, 1 nM in data set [1] and 0.6 nM in data set [2].

For `COC(=O)N[C@H](C(=O)N1CCC[C@H]1c1nc2ccc(C#Cc3ccc4c(ccc5nc([C@@H]6CCCN6C(=O)[C@@H](NC(=O)OC)C(C)C)[nH]c54)c3)cc2[nH]1)C(C)C` [Example 103], the EC50 in the data set on HCV GT 1a replicon turned out to be 0.012 nM; in data set [1], 3 nM; in data set [2], 2 nM.
